Where no end group is shown, it is not given here. [ ]: non-standard residue; d: D form.
How the values were obtained:
[1] = tested on: extinction of conditioned flight behaviour; conditions: cited from earlier work; for retardation of the extinction of conditioned flight behaviour: European Journal of Pharmacology 2, 14 (1967)
[2] = tested on: extinction of conditioned flight behaviour; experiment: inhibition (retardation) of the extinction of conditioned flight behaviour; psychopharmacological activity; format: in vivo; conditions: for Potency Ratio with Respect to 4-10 ACTH: 4-10 ACTH = 1
Excerpt: This invention relates to the field of pharmaceutical compounds, and to the sub-field of psychopharmacologically active compounds. The compounds in question show an inhibition of the extinction of conditioned flight behaviour, as a result of which they are eminently suitable for the treatment of mental disorders in which a stimulation of the cerebral function is desired, such as in case of senility. The invention further relates to pharmaceutical compositions containing these peptide compounds or their derivatives where the latter are an active constituent.

| Substance | Potency Ratio with Respect to 4-10 ACTH ([2]; Table I) | Potency Ratio with Respect to 4-10 ACTH ([2]; Table II) | further results |
| --- | --- | --- | --- |
| 4-10 ACTH: the peptide containing the amino-acid sequence 4-10 from ACTH (MEHFRWG; Corticotropin; UniProt P01189 141-147, looked up, fragment) | – | – | retardation of the extinction of conditioned flight behaviour [1]: as active as ACTH itself |
| ACTH: natural adrenocorticotropic hormone (SYSMEHFRWGKPVGKKRRPVKVYPNGAEDESAEAFPLEF; Corticotropin; UniProt P01189 138-176, looked up) | – | – | retardation of the extinction of conditioned flight behaviour [1]: retard the extinction |
| FRWGKPVGKK [7-16 ACTH] | 1 | 1 | – |
| F[dK]FGKPVGK | – | 1 | – |
| F[dK]FGKPVGKK | 100 | 100 | – |
| F[dK]FG[dK]PVGKK | – | 10,000 | – |
| H-L-Met (→ O)-L-Glu-L-His-L-Phe-D-Lys-L-Phe-OH | – | – | activity relative to the unchanged 4-9 ACTH ([1]; psychopharmacological activity, peptide of the earlier U.S. patents): about 1000 times |
| Phe-Arg-Trp [7-9 ACTH] | 0.1 | – | – |
| Phe-[dK]-Phe | 0.1 | – | psychopharmacological activity (in words) ([2]; in vivo): some psychopharmacological activity, although in a latent form |
